From publication PMC4912218, “Targeted metabolomics of Gammarus pulex following controlled exposures to selected pharmaceuticals in water” (The Science of the Total Environment, 2016)

System: Gammarus pulex
Assay: Targeted metabolite profiling (LC-HRMS) of G. pulex after exposure at NOAEL and LOAEL
Format: in vivo
Description: Approximately 100 specimens were introduced in a tank containing 1 L of AFW (control), 1 L of AFW spiked with C1 and 1 L of AFW with C2. At three different times (2, 6 and 24 h), 4 replicates of live G. pulex (a pool of 6–7 animals for each replicate) were collected, frozen on dry ice and then stored at − 80 °C before metabolite profiling was performed.
Quantification of pharmaceutical concentrations in G. pulex at the 24 h exposure interval was performed. Separate exposures were set up in triplicate in beakers containing 200 mL of exposure solution (AFW spiked with the respective C1 pharmaceutical dose) and 20 organisms. At 24 h, animals were immediately rinsed with ultra-pure water and then frozen at − 20 °C for 24 h. […] Prior to extraction, frozen G. pulex samples were lyophilised at − 50 °C under vacuum for 48 h and milled in an agate mortar to a fine powder. For each analysis, 20 mg of a lyophilised composite sample were transferred to 2 mL polypropylene tubes (Eppendorf®, Hamburg, Germany), for solid-liquid extraction (SLE). […] Then, samples were shaken for 25 min on a vibration plate (IKA® KS 260 basic) and centrifuged at 14,000 rpm for 25 min at 0 °C. Finally, the supernatant was transferred to a chromatographic vial by using a […] syringe filter (Whatman, GE Healthcare Life Sciences, Buckinghamshire, UK). All samples were stored at − 80 °C until LC-HRMS analysis.
Briefly, 50 mg of lyophilised G. pulex were extracted in 5 mL of acetonitrile and pre-concentrated on Oasis HLB SPE cartridges (6 mL, 200 mg sorbent). The extract was eluted, dried-down and reconstituted in starting LC mobile phase. […] Organic acids, nucleosides, nucleotides, sugars and AAs were measured using LC–HRMS. An Exactive™ mass spectrometer equipped with heated electrospray ionization (H-ESI) source was used (Thermo Fisher Scientific, Bremen, Germany). The system was equipped with a HTC PAL autosampler and a Surveyor MS Plus pump. A TSK Gel-Amide 80 column (2 × 250 mm, 5 μm) for analyte separation was purchased from Sigma Aldrich. Mobile phases were binary mixtures of acetonitrile (A) and 5 mM ammonium acetate (pH 5) in HPLC-grade water (B). […] The flow rate was set at 150 μL min^− 1 and the injection volume was 5 μL. […] Full scan acquisition over a mass range of 80–800 Da was performed at 70,000 full width at half maximum (FWHM) and spray voltage at 3.00 kV, capillary voltage at 30 V, skimmer voltage at 28 V and tube lens voltage at 130 V were used. A sheath gas flow rate of 45 arbitrary units (au), an auxiliary gas flow rate of 10 au and a capillary temperature at 300 °C were selected.
Here, pharmaceutical residue quantification in exposed G. pulex was performed by a 3-point matrix-matched calibration curve. […] The algal amino acid mixture-^13C,^15N (see Table 1) was used as internal standard (IS) for extraction and analytical control. L-ornithine hydrochloride, inosine, thymidine, taurine, 1.7-dimethylxanthine and (−)-riboflavin were quantified using either ^13C,^15N-proline or ^13C,^15N-tyrosine as the internal standard. The remaining 15 compounds were quantified using external calibration and the target compound itself was used as external standard. […] The method detection limit (MDL) was calculated following the same procedure, using spiked lyophilised G. pulex samples at a concentration of 1 μg g^− 1. Intra-assay variation was assessed using five consecutive injections of 5 ng μL^− 1 standard solution, and inter-assay variation was determined by measuring the same standard solution on four different days. […] Recovery studies were performed in triplicate, using lyophilised G. pulex samples spiked at 1 μg g^− 1 with the metabolites mixture and the algal amino acid mixture-^13C, ^15N.

Oc1cc(Cl)ccc1Oc1ccc(Cl)cc1Cl [Triclosan]
(-)-Riboflavin concentration in G. pulex (2h, C1= 0.1 mg/L): 2.6 ± 0.7 µg/g | ADP concentration in G. pulex (2h, C1= 0.1 mg/L): 28.6 ± 2 µg/g | Cytidine concentration in G. pulex (2h, C1= 0.1 mg/L): 34 ± 22 µg/g | Hypoxanthine concentration in G. pulex (2h, C1= 0.1 mg/L): 123 ± 4 µg/g | Inosine concentration in G. pulex (2h, C1= 0.1 mg/L): 14808 ± 1341 µg/g | L-2-amino-n-butyric concentration in G. pulex (2h, C1= 0.1 mg/L): 15.1 ± 3 µg/g | L-(-)-Proline concentration in G. pulex (2h, C1= 0.1 mg/L): 499 ± 11 µg/g | L-Alanine concentration in G. pulex (2h, C1= 0.1 mg/L): 999 ± 2 µg/g | L-Citrulline concentration in G. pulex (2h, C1= 0.1 mg/L): 9.7 ± 0.4 µg/g | L-Isoleucine concentration in G. pulex (2h, C1= 0.1 mg/L): 2067 ± 110 µg/g | L-Leucine concentration in G. pulex (2h, C1= 0.1 mg/L): 443 ± 1 µg/g | L-Methionine concentration in G. pulex (2h, C1= 0.1 mg/L): 5.4 ± 0.6 µg/g | L-Phenylalanine concentration in G. pulex (2h, C1= 0.1 mg/L): 340 ± 28 µg/g | L-Serine concentration in G. pulex (2h, C1= 0.1 mg/L): 158 ± 7 µg/g | L-Threonine concentration in G. pulex (2h, C1= 0.1 mg/L): 740 ± 6 µg/g | L-Tryptophan concentration in G. pulex (2h, C1= 0.1 mg/L): 74 ± 20 µg/g | L-Tyrosine concentration in G. pulex (2h, C1= 0.1 mg/L): 247 ± 8 µg/g | L-Valine concentration in G. pulex (2h, C1= 0.1 mg/L): 500 ± 1 µg/g | L-aspartic acid concentration in G. pulex (2h, C1= 0.1 mg/L): 62.6 ± 3 µg/g | NADH concentration in G. pulex (2h, C1= 0.1 mg/L): 7.11 ± 0.1 µg/g | Taurine concentration in G. pulex (2h, C1= 0.1 mg/L): 7300 ± 168 µg/g | Thymidine concentration in G. pulex (2h, C1= 0.1 mg/L): 2918 ± 603 µg/g | Trehalose concentration in G. pulex (2h, C1= 0.1 mg/L): 197 ± 1 µg/g | Uridine concentration in G. pulex (2h, C1= 0.1 mg/L): 699 ± 21 µg/g | (-)-Riboflavin concentration in G. pulex (2h, C2= 0.3 mg/L): 2.4 ± 0.5 µg/g | ADP concentration in G. pulex (2h, C2= 0.3 mg/L): 30.5 ± 0.2 µg/g | Cytidine concentration in G. pulex (2h, C2= 0.3 mg/L): 15 ± 6 µg/g | Hypoxanthine concentration in G. pulex (2h, C2= 0.3 mg/L): 74 ± 22 µg/g | Inosine concentration in G. pulex (2h, C2= 0.3 mg/L): 20640 ± 179 µg/g | L-2-amino-n-butyric concentration in G. pulex (2h, C2= 0.3 mg/L): 17.0 ± 2 µg/g | L-(-)-Proline concentration in G. pulex (2h, C2= 0.3 mg/L): 313 ± 1 µg/g | L-Alanine concentration in G. pulex (2h, C2= 0.3 mg/L): 827 ± 10 µg/g | L-Citrulline concentration in G. pulex (2h, C2= 0.3 mg/L): 14.6 ± 0.4 µg/g | L-Isoleucine concentration in G. pulex (2h, C2= 0.3 mg/L): 1140 ± 38 µg/g | L-Leucine concentration in G. pulex (2h, C2= 0.3 mg/L): 361 ± 17 µg/g | L-Methionine concentration in G. pulex (2h, C2= 0.3 mg/L): 3.8 ± 0.6 µg/g | L-Phenylalanine concentration in G. pulex (2h, C2= 0.3 mg/L): 200 ± 15 µg/g | L-Serine concentration in G. pulex (2h, C2= 0.3 mg/L): 158 ± 7 µg/g | L-Threonine concentration in G. pulex (2h, C2= 0.3 mg/L): 530 ± 7 µg/g | L-Tryptophan concentration in G. pulex (2h, C2= 0.3 mg/L): 142 ± 7 µg/g | L-Tyrosine concentration in G. pulex (2h, C2= 0.3 mg/L): 216 ± 5 µg/g | L-Valine concentration in G. pulex (2h, C2= 0.3 mg/L): 268 ± 1 µg/g | L-aspartic acid concentration in G. pulex (2h, C2= 0.3 mg/L): 60.5 ± 3 µg/g | NADH concentration in G. pulex (2h, C2= 0.3 mg/L): 9.3 ± 0.2 µg/g | Taurine concentration in G. pulex (2h, C2= 0.3 mg/L): 7645 ± 212 µg/g | Thymidine concentration in G. pulex (2h, C2= 0.3 mg/L): 639 ± 140 µg/g | Trehalose concentration in G. pulex (2h, C2= 0.3 mg/L): 272 ± 10 µg/g | Uridine concentration in G. pulex (2h, C2= 0.3 mg/L): 506 ± 66 µg/g | (-)-Riboflavin concentration in G. pulex (6h, C1= 0.1 mg/L): 3.4 ± 3 µg/g | ADP concentration in G. pulex (6h, C1= 0.1 mg/L): 18.6 ± 3 µg/g | Cytidine concentration in G. pulex (6h, C1= 0.1 mg/L): 66 ± 21 µg/g | Hypoxanthine concentration in G. pulex (6h, C1= 0.1 mg/L): 154 ± 27 µg/g | Inosine concentration in G. pulex (6h, C1= 0.1 mg/L): 18116 ± 26 µg/g | L-2-amino-n-butyric concentration in G. pulex (6h, C1= 0.1 mg/L): 21.1 ± 4 µg/g | L-(-)-Proline concentration in G. pulex (6h, C1= 0.1 mg/L): 462 ± 5 µg/g | L-Alanine concentration in G. pulex (6h, C1= 0.1 mg/L): 1119 ± 48 µg/g | L-Citrulline concentration in G. pulex (6h, C1= 0.1 mg/L): 9.0 ± 0.9 µg/g | L-Isoleucine concentration in G. pulex (6h, C1= 0.1 mg/L): 2685 ± 88 µg/g | L-Leucine concentration in G. pulex (6h, C1= 0.1 mg/L): 459 ± 4 µg/g | L-Methionine concentration in G. pulex (6h, C1= 0.1 mg/L): 5.0 ± 0.5 µg/g | L-Phenylalanine concentration in G. pulex (6h, C1= 0.1 mg/L): 417 ± 5 µg/g | L-Serine concentration in G. pulex (6h, C1= 0.1 mg/L): 179 ± 13 µg/g | L-Threonine concentration in G. pulex (6h, C1= 0.1 mg/L): 787 ± 22 µg/g | L-Tryptophan concentration in G. pulex (6h, C1= 0.1 mg/L): 97 ± 16 µg/g | L-Tyrosine concentration in G. pulex (6h, C1= 0.1 mg/L): 301 ± 1 µg/g | L-Valine concentration in G. pulex (6h, C1= 0.1 mg/L): 601 ± 9 µg/g | L-aspartic acid concentration in G. pulex (6h, C1= 0.1 mg/L): 43.2 ± 2 µg/g | NADH concentration in G. pulex (6h, C1= 0.1 mg/L): 7.7 ± 1 µg/g | Taurine concentration in G. pulex (6h, C1= 0.1 mg/L): 10516 ± 434 µg/g | Thymidine concentration in G. pulex (6h, C1= 0.1 mg/L): 3697 ± 180 µg/g | Trehalose concentration in G. pulex (6h, C1= 0.1 mg/L): 259 ± 8 µg/g | Uridine concentration in G. pulex (6h, C1= 0.1 mg/L): 723 ± 21 µg/g
